Data published in article PMC9738927, “A Newly Identified Monoterpenoid-Based Small Molecule Able to Support the Survival of Primary Cultured Dopamine Neurons and Alleviate MPTP-Induced Toxicity In Vivo” (Molecules, 2022).
Where “and” joins values, the source holds several entries; their conditions need not be identical. Equal entries are not always repeated.

How the values were obtained:
CD-1 female mice = assay: Maximum tolerated dose and LD50 (acute oral toxicity); format: in vivo
Method: (§1) Healthy animals were randomly divided into groups of four males or four females each. After a 3–4 h starvation, animals were administered 100, 150, 200, or 500 mg/kg PA96 solution (prepared by dissolution in saline containing 0.5% Tween 80) or the vehicle […]. Food was provided for approximately 1–2 h after administration. All mice were continuously monitored for changes in weight, breathing, ptosis, gait disturbance, tremor, and mortality 1 h after administration of PA96 and every 6 h after that. The day of dosing was designated as day 0, and animals were observed until day 14. Each mouse was weighed on days 0, 1, 3, 7, and 14.
(§2) The arithmetic method of Kerber was used to determine the lethal dose fifty (LD50) that killed 50% of studied animals with PA96.
(§3) The LD50 value was determined according to the following equation [24]:LD50 = LD100 − ∑ (z × d)/m(1) where LD50—dose capable of killing 50% of animals; LD100—dose capable of killing 100% of animals; z—half the sum of the number of animals in the experiments with the test of two following doses; d—the difference between two successive doses of administrative PA96; m—total number of animals in each group.

[1] = as above; format: in vivo; settings: female, CD-1, mouse, in vivo, po
Method: as §1, §2, §3

MPTP-treated mice = assay: Coat hanger test in the acute MPTP mouse model of PD; format: in vivo, C57Bl/6 male mice
naïve C57Bl/6 mice = assay: Open field test in naïve mice; format: in vivo, C57Bl/6 male mice; settings: 1, 10, 20 mg/kg once per os, 1 h after dosing
Method: The studied agent in a dose of 1 mg/kg, 10 mg/kg, and 20 mg/kg or saline was administered once per os in a water-Tween 80 solution to 8 mice per group of C57Bl/6 mice. The main markers of the locomotor activity movement distance (cm) and duration of locomotor activity (s) were registered with the open field test performed for 2 min using Tru Scan (USA), 1 h after the administration of the studied agent.

[2] = tested on: naïve primary midbrain dopamine neurons; assay: Survival of naïve cultured dopamine neurons (TH-positive cell count); format: cell-based, mouse
Method: We developed a compound library containing 20 diol derivatives and screened them on cultured primary DA neurons (Supplementary Materials, Table S1). Compounds were taken at a dose of 0.1 and 1 μM (based on effective doses for the epoxydiol). Based on the screening results, we selected four compounds and tested them in a naïve and MPP^+-treated (1-methyl-4-phenylpyridinium (MPP^+), the neurotoxic metabolite of MPTP) DA culture at 1, 10, and 100 nM to select the compound with the lowest effective dose.
The survival of cultured mouse DA neurons was assessed as described before. Briefly, naïve or MPP^+ (dopaminergic selective neurotoxin)-challenged embryonic midbrain neurons were cultured in the presence or absence of a diol-like compound. The number of survived DA neurons was estimated after immunocytochemical staining with antibodies recognizing the key enzyme of dopamine synthesis—tyrosine hydroxylase.

[3] = tested on: nigrostriatal dopamine system of MPTP-treated mice; assay: TH immunohistochemistry of striatum and substantia nigra in MPTP-treated mice; format: in vivo, C57Bl/6 male mice
Method: The samples were collected 7 days after the last administration of PA96. Mice were anesthetized using terminal phenobarbital injection (50 mg/kg), perfused trans-cardially with PBS, and then 4% paraformaldehyde in PBS in accordance with. The brains were collected, treated, and embedded into paraffin blocks using the histological complex Microm (Fürth, Germany).
To analyze the effect of PA96 in dopamine neurons in vivo, tyrosine hydroxylase immunohistochemistry was performed as described previously. The PFA-fixed and paraffin-embedded brains were cut into 5 µm thick sections (3 sections per slide), and every fifth slide was taken for TH staining. The sections were deparaffinized, followed by a citrate antigen retrieval procedure. Endogenous peroxidase was inactivated by 30 min incubation with 3% H2O2. The sections were blocked with 5% normal goat serum and then probed with monoclonal TH antibody (1:2000, Millipore Cat# MAB318 Lot# RRID:AB_2201528) overnight at +4 °C. The sections were washed, and biotinylated horse antimouse secondary antibody (1:200, Cat# BA-2001, Vector Laboratories, Burlingame, CA, USA) was applied for 1 h, followed by washing. […]
The sections were scanned with an automated scanner (3DHistech, Budapest, Hungary), and the images were converted to 16-bit grayscale. […] The integrated optical densities in images were measured in ImageJ (NIH) and divided by area in pixels.

[4] = tested on: MPTP-lesioned C57BL/6 mice; assay: DA and DOPAC levels in midbrain and striatum by HPLC-ED after MPTP lesion; format: in vivo
Method: Neurochemical analyses via HPLC-ED were conducted as described before. Microdissected samples of the striatum (ST) and midbrain were homogenized in 300 and 400 µL of cold 0.6 M HClO4, respectively, using a motor-driven grinder (Z359971, Sigma-Aldrich, USA) and the homogenate was spun for 15 min at 12,000 rpm (+4 °C). The pellet was diluted in 1 mL of 0.1 M NaCl and used for protein quantitation by Bradford (Bio Rad, USA) according to the manufacturer’s protocol. The clear supernatant was diluted twice with pure water and used for assay of DA and […] (DOPAC) by HPLC on Luna C18(2) column (5 μm particle size, L × I.D. 75 × 4.6 mm, Phenomenex, Torrance, CA, USA) with electrochemical detection (750 mV, DECADE II™ Electrochemical Detector; Antec, The Netherlands). The standard mixes containing 1, 2, and 3 ng of DA and DOPAC were repeatedly assayed throughout the entire procedure and used to plot the calibration curves for each substance. The areas of peaks were estimated using LabSolution LG/GC software version 5.54 (Shimadzu Corporation, Japan) and calibrated against the calibrated curves for corresponding standards. The contents of DA and DOPAC were expressed nanogram (ng) per milligram (mg) of protein assayed by Bradford.

SMILES: C=C(C)[C@@H]1CC=C(C)[C@@H](Sc2nc[nH]n2)[C@@H]1O [PA96, (1R,2R,6S)-2-(1H-1,2,4-triazol-3-ylthio)-3-methyl-6-(prop-1-en-2-yl)cyclohex-3-enol]
- MTD relative to the effective dose (CD-1 female mice; female, CD-1, mouse, in vivo, 14 days): 100 fold
- dose at which abnormal clinical signs were observed (piloerection, decreased motor activity, ptosis, gait disturbance) (CD-1 female mice; female, CD-1, mouse, in vivo, po, 14 days): ≥ 150 mg/kg
- hazard category (CD-1 female mice; mouse, in vivo): Category III (slightly hazardous)
- therapeutic dose lower than LD50 (CD-1 female mice; therapeutic dose vs LD50): at least 100 times
- LD50 at 14 days [1]: 234 mg/kg
- MTD at 14 days [1]: 100 mg/kg
- antiparkinsonian activity in vivo (effective dose) (MPTP-treated mice; MPTP mouse model, per os): 1 mg/kg
- coat hanger score (MPTP-treated mice; MPTP-treated mice, 1 mg/kg, 60 s time point, MPTP 3.6 ± 1.0, p = 0.0324): 6.7 ± 0.2
- increase of movement time in coat hanger test (MPTP-treated mice; MPTP-treated mice, 1 mg/kg, vs MPTP): 40%
- coat hanger score (MPTP-treated mice; MPTP-treated mice, 10 mg/kg, p = 0.0622): trend toward increasing the score
- locomotor activity of naive animals (movement distance, duration) (naïve C57Bl/6 mice): did not activate
- potency relative to epoxydiol in the survival assay ([2]; PA96 vs epoxydiol): up to 100 times
- effective concentration in survival assay for DA neurons ([2]; cultured DA neurons): 1 nM and 1−10 nM
- cytotoxicity in in vitro experiments ([2]; naive neurons and with MPP+): neither cytotoxic effect in naive neurons nor increased cytotoxicity
- number of TH-positive neurons greater than in vehicle-treated wells ([2]; naïve neurons, 1 nM, p = 0.04): 40%
- increase of the number of TH-positive neurons in SN ([3]; 1 mg/kg, compared to MPTP-treated mice): 37%
- density of TH-positive fibers in the striatum (loss induced by MPTP) ([3]; 1 and 10 mg/kg): not alleviated
- MPTP-induced reduction in DA level in the midbrain [4]: tended to alleviate
- DA and DOPAC concentrations in ST or midbrain ([4]; 10 mg/kg): did not affect
